Measured values from patent US7022480B1, “Exons of the hSKCa3/KCNN3 gene” (priority 2001, dated 2006).

Key:
SKCa and IKCa1 channel = conditions: reported in the literature; cited from earlier work
[1] = molecular target: T1, SK2 channels in Jurkat T lymphocytes (Homo sapiens, UniProt Q9H2S1); test: Whole-cell patch clamp of native SK2 current in Jurkat T lymphocytes; type: cell-based; conditions: transfected Jurkat T lymphocytes
T1 construct: endogenous in cells; host or cells: Jurkat T lymphocytes
Method: (§1) PC12 and Jurkat T cells were studied in the whole cell configuration of the patch clamp technique with a holding potential of −80 mV. SK and Kv current amplitude were determined in untransfected cells or in cells transfected with SKCa3-1b-GFP, SKCa3-1b-IRES-GFP, or control constructs (GFP vector alone, GFP-Kv1.7). […] Brightly GFP-positive cells were identified under a fluorescence microscope to allow the analysis of cells expressing high levels of the channel constructs for electrophysiological studies. Control constructs were expressed at equivalently high levels as assessed by the intensity of the GFP signal.
(§2) To activate SK channels, the pipette solution contained (in mM): 145 K^+ aspartate, 2 MgCl2, 10 HEPES, 10 K2EGTA, and 8.5 CaCl2 (1 μM free Ca^2+), pH 7.2, 290–310 mOsm. […] The amplitude of the KV current was measured as the maximum current at 30 mV in 160 Na^+ aspartate. […]
(§3) Human Jurkat T lymphocyte cell line was chosen for these experiments because they express SK2 channels and no other SK channels, along with voltage-gated Kv1.3 channels that could serve as an internal control (Fanger et al, J. Biol. Chem. 2001; 276: 12249–12256; Grissmer et al, J. Gen. Physiol. 1992; 99: 63–84; Desai et al, J. Biol. Chem. 2000; 275: 39954–39963.). Using the electrophysiological protocol described above for PC12 cells, SK2 and Kv1.3 currents in Jurkat cells were measured. […]

GFP-SKCa1 currents = test: Co-expression with GFP-SKCa1 in mammalian cells, calcium-activated currents; type: cell-based; conditions: expressed in mammalian cells
Source text: GFP-SKCa1 produces robust calcium-activated currents when expressed in COS-7 cells (Shakkottai et al., J. Biol. Chem. 276 (46): 43145–43151, 2001.). When co-expressed with fluorescently labeled SKCa3-1b (Tomita et al, 2002 Mol. Psych. In press) or fluorescently labeled SKCa3-1c, dominant-negative suppression of SKCa3-1a is seen. Similarly, fluorescently labeled SKCa3-1b (Tomita et al, 2002 Mol. Psych. In press) and fluorescently labeled SKCa3-1c dominant-negatively suppress endogenous SKCa currents present in PC12 cells (Sun et al., J. Hum. Genet. 46, 463–470, 2001.).

[2] = molecular target: T2, Kv1.3 channels in Jurkat T lymphocytes (Homo sapiens, UniProt P22001); test: Whole-cell patch clamp of Kv1.3 current in Jurkat T lymphocytes (internal control); type: cell-based; conditions: transfected Jurkat T lymphocytes
T2 construct: endogenous in cells; host or cells: Jurkat T lymphocytes
Method: as §1, §2, §3

SKCa3-1a currents = test: Co-expression with SKCa3-1a in mammalian cells, calcium-activated currents; type: cell-based; conditions: untagged or with a GFP tag
Source text: When normally expressed in mammalian cells, native or green fluorescence protein (GFP) tagged SKCa3-1a produces robust apamin- and Leiurus toxin-sensitive calcium-activated currents (Shakkottai et al., J. Biol. Chem. 276 (46): 43145–43151, 2001.).

Sequence of SKCa3-1a currents (Q9UGI6 81-731): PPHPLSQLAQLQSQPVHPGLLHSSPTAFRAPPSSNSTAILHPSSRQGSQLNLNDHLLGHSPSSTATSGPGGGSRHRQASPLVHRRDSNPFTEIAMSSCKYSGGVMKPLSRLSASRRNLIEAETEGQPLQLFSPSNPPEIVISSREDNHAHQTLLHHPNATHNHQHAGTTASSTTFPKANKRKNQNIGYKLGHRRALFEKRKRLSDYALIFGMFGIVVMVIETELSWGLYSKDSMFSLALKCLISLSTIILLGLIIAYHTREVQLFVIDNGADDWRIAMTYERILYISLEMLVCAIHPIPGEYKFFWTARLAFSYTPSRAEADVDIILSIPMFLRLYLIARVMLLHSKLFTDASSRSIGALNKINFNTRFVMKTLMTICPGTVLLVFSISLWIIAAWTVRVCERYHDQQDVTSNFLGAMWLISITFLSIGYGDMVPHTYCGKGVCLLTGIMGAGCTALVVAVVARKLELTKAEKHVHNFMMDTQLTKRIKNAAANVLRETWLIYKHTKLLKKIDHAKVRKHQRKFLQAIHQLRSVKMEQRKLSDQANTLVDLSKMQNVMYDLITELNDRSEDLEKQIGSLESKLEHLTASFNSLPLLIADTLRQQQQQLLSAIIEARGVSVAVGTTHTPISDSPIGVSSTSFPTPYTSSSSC
Sequence of GFP-SKCa1 currents (Q92952 2-543): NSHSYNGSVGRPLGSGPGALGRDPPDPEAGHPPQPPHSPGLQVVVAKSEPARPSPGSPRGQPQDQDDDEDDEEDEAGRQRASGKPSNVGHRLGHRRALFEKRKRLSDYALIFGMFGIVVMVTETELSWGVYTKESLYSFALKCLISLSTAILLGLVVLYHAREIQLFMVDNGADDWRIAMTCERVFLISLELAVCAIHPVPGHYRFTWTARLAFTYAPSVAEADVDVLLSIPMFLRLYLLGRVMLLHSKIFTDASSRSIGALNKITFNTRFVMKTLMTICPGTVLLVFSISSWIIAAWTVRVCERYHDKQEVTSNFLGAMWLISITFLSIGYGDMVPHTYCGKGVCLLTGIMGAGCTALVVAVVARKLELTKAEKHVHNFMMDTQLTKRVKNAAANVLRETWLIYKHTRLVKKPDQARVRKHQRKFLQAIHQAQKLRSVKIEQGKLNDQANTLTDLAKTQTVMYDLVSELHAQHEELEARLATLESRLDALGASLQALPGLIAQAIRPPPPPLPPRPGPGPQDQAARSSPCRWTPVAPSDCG
T2 sequence (P22001 whole entry): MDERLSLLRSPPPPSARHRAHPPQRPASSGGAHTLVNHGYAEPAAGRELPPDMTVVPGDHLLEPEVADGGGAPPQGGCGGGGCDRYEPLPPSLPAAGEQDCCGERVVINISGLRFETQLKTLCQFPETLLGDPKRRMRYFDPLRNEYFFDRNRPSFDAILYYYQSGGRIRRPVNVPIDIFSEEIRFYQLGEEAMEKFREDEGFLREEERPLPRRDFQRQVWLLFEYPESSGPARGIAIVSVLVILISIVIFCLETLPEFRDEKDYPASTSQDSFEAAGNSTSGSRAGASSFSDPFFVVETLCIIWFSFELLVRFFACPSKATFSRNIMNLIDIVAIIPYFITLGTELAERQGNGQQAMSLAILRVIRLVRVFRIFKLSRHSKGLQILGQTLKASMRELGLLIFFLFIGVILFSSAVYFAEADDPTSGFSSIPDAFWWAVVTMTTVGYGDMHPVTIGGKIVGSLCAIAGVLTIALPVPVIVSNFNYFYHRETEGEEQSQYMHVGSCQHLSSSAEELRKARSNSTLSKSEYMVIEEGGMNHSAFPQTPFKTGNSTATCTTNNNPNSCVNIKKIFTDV
T1 sequence (Q9H2S1 whole entry): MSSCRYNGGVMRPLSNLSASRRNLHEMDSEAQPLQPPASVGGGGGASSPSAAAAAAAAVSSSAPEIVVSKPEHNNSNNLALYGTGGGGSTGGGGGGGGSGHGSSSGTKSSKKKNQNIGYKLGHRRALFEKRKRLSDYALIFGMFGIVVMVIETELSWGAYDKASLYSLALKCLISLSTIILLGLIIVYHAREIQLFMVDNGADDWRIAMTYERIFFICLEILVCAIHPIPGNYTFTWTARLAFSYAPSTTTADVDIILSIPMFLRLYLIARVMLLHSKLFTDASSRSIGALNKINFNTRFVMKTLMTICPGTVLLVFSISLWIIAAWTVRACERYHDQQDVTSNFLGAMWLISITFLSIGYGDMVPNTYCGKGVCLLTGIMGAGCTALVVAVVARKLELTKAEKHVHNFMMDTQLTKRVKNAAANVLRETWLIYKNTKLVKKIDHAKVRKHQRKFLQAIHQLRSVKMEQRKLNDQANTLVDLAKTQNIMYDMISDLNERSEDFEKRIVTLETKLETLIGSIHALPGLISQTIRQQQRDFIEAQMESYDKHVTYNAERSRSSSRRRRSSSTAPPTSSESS

Row | Compound | effect on SKCa and IKCa1 channel opening (SKCa and IKCa1 channel) | effect of transfection on native SK2 current [1] | effect on GFP-SKCa1 currents (GFP-SKCa1 currents) | effect of transfection on control Kv1.3 current [2] | effect of co-expression on SKCa3-1a current (SKCa3-1a currents)
1 | CCn1c(=O)[nH]c2ccccc21 [1-ethyl-2-benzimidazolinone] | enhance SKCa and IKCa1 channel opening |  |  |  | 
2 | SKCa3-1b: isoform variant of the SK3 gene (SEQ ID NO: 2) using exon 1b, lacking N-terminus and S1 segment |  | suppressed | negative dominantly suppress | unaffected | selective dramatic inhibition
3 | SKCa3-1c: isoform variant of the SK3 gene (SEQ ID NO: 4) using exon 1c, lacking N-terminus and S1 segment |  |  | negative dominantly suppress |  | comparable results
